“And” between values parts separate entries of the source, which are not always exact repeats. Identical values can stand only once. Toxic doses and inconclusive results are not listed.
System: CD2F1 mice, L1210 leukemia ip, survival T/C
Assay: NCI In Vivo Anticancer Drug Screen. Data for tumor model L1210 Leukemia (intraperitoneal) in CD2F1 (CDF1) mice
Conditions: higher = longer survival
Summary of the method: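 Compound-dosed mice with transplantable tumor versus matched vehicle controls; endpoint ratio T/C reported.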

[1] = endpoint: mean survival time, dose: 12.5 mg/kg/injection, schedule: Q01DX005 (ip), vehicle: other
[2] = endpoint: mean survival time, dose: 25.0 mg/kg/injection, schedule: Q01DX005 (ip), vehicle: other
[3] = endpoint: mean survival time, dose: 50.0 mg/kg/injection, schedule: Q01DX005 (ip), vehicle: other
[4] = endpoint: mean survival time, dose: 100.0 mg/kg/injection, schedule: Q01DX005 (ip), vehicle: other
[5] = endpoint: mean survival time, dose: 200.0 mg/kg/injection, schedule: Q01DX005 (ip), vehicle: other
[6] = endpoint: mean survival time, dose: 100.0 mg/kg/injection, schedule: Q04DX003 (ip), vehicle: saline with Tween-80
[7] = endpoint: mean survival time, dose: 200.0 mg/kg/injection, schedule: Q04DX003 (ip), vehicle: saline with Tween-80
[8] = endpoint: mean survival time, dose: 400.0 mg/kg/injection, schedule: Q04DX003 (ip), vehicle: saline with Tween-80
[9] = endpoint: mean survival time, dose: 100.0 mg/kg/injection, schedule: Q01DX001 (ip), vehicle: saline with Tween-80
[10] = endpoint: mean survival time, dose: 200.0 mg/kg/injection, schedule: Q01DX001 (ip), vehicle: saline with Tween-80
[11] = endpoint: mean survival time, dose: 400.0 mg/kg/injection, schedule: Q01DX001 (ip), vehicle: saline with Tween-80
[12] = endpoint: mean survival time, dose: 25.0 mg/kg/injection, schedule: Q04DX003 (ip), vehicle: saline with Tween-80
[13] = endpoint: mean survival time, dose: 50.0 mg/kg/injection, schedule: Q04DX003 (ip), vehicle: saline with Tween-80
[14] = endpoint: mean survival time, dose: 100.0 mg/kg/injection, schedule: Q01DX009 (ip), vehicle: saline with Tween-80
[15] = endpoint: mean survival time, dose: 200.0 mg/kg/injection, schedule: Q01DX009 (ip), vehicle: saline with Tween-80
[16] = endpoint: mean survival time, dose: 400.0 mg/kg/injection, schedule: Q01DX009 (ip), vehicle: saline with Tween-80

## CSc1nccc2c1nnn2C1OC(CO)C(O)C1O (stereo not given)
[1]
  T/C: 101 % of control
[2]
  T/C: 101 % of control
[3]
  T/C: 97 % of control
[4]
  T/C: 101 % of control
[5]
  T/C: 100 % of control

## OCC1OC(n2cnc3c2NC=NCC3O)C(Cl)C1O (stereo not given)
endpoint: median survival time, dose: 5.0 mg/kg/injection, schedule: Q01DX005 (ip), vehicle: other
  T/C: 101 % of control
endpoint: median survival time, dose: 10.0 mg/kg/injection, schedule: Q01DX005 (ip), vehicle: other
  T/C: 103 % of control
endpoint: median survival time, dose: 20.0 mg/kg/injection, schedule: Q01DX005 (ip), vehicle: other
  T/C: 96 % of control
endpoint: median survival time, dose: 30.0 mg/kg/injection, schedule: Q01DX005 (ip), vehicle: other
  T/C: 118 % of control
endpoint: median survival time, dose: 40.0 mg/kg/injection, schedule: Q01DX005 (ip), vehicle: other
  T/C: 106 % of control
endpoint: median survival time, dose: 60.0 mg/kg/injection, schedule: Q01DX005 (ip), vehicle: other
  T/C: 107 % of control
endpoint: median survival time, dose: 120.0 mg/kg/injection, schedule: Q01DX005 (ip), vehicle: other
  T/C: 100 % of control

## Clc1cccc(Cl)c1C(Nc1nncs1)Nc1nncs1
endpoint: median survival time, dose: 25.0 mg/kg/injection, schedule: Q01DX005 (ip), vehicle: saline with Tween-80
  T/C: 113 % of control
endpoint: median survival time, dose: 144.0 mg/kg/injection, schedule: Q01DX005 (ip), vehicle: saline with Tween-80
  T/C: 151 % of control
endpoint: median survival time, dose: 240.0 mg/kg/injection, schedule: Q01DX005 (ip), vehicle: saline with Tween-80
  T/C: 171 % of control
endpoint: median survival time, dose: 400.0 mg/kg/injection, schedule: Q01DX005 (ip), vehicle: saline with Tween-80
  T/C: 192 % of control and 223 % of control

## O=C(Cc1cccc2ccccc12)N/N=C/c1ccc2c(c1)CCC2
[6]
  T/C: 89 % of control
[7]
  T/C: 95 % of control
[8]
  T/C: 95 % of control

## CCCCCCCC=C(CCCCCCCC)CCCCCCCC
[9]
  T/C: 100 % of control
[10]
  T/C: 97 % of control
[11]
  T/C: 100 % of control

## [O-][n+]1c2ccccc2c(Oc2ccccc2)c2ccc3ccccc3c21
[12]
  T/C: 98 % of control
[13]
  T/C: 95 % of control
[6]
  T/C: 86 % of control

## COC(=O)c1cc(NS(=O)(=O)c2ccc(N)c([N+](=O)[O-])c2)cc(C(=O)OC)c1
[14]
  T/C: 98 % of control
[15]
  T/C: 95 % of control
[16]
  T/C: 96 % of control

## Nc1nc(=O)n(CCCOc2cccc([N+](=O)[O-])c2)cc1-c1ccccc1
[9]
  T/C: 96 % of control
[10]
  T/C: 87 % of control
[11]
  T/C: 87 % of control

## OC12Cc3ccccc3C1=NN(c1ccccc1)C2c1ccccc1 (stereo not given)
[14]
  T/C: 91 % of control
[16]
  T/C: 86 % of control

## Clc1ccc2c(CBr)ccnc2c1
endpoint: mean survival time, dose: 50.0 mg/kg/injection, schedule: Q04DX003 (ip), vehicle: other
  T/C: 110 % of control
endpoint: mean survival time, dose: 100.0 mg/kg/injection, schedule: Q04DX003 (ip), vehicle: other
  T/C: 112 % of control

## O=C(O)c1ccccc1Nc1ccc(Br)cc1
[12]
  T/C: 95 % of control
[13]
  T/C: 104 % of control
[6]
  T/C: 93 % of control and 112 % of control
[7]
  T/C: 98 % of control

## CSc1nn(C2OC(CO)C(O)C2O)c(=O)[nH]c1=O (stereo not given)
endpoint: mean survival time, dose: 12.5 mg/kg/injection, schedule: Q01DX005 (ip), vehicle: distilled water + Tween-80
  T/C: 102 % of control
endpoint: mean survival time, dose: 25.0 mg/kg/injection, schedule: Q01DX005 (ip), vehicle: distilled water + Tween-80
  T/C: 95 % of control
endpoint: mean survival time, dose: 50.0 mg/kg/injection, schedule: Q01DX005 (ip), vehicle: distilled water + Tween-80
  T/C: 98 % of control
endpoint: mean survival time, dose: 100.0 mg/kg/injection, schedule: Q01DX005 (ip), vehicle: distilled water + Tween-80
  T/C: 102 % of control
endpoint: mean survival time, dose: 200.0 mg/kg/injection, schedule: Q01DX005 (ip), vehicle: distilled water + Tween-80
  T/C: 104 % of control

## Cn1c2ccccc2c(=O)c2ccc(Cl)cc21
[6]
  T/C: 95 % of control
[7]
  T/C: 96 % of control
[8]
  T/C: 96 % of control

## CC(=O)OC(C(=O)N(c1ccccc1)c1ccccc1)c1ccccc1 (stereo not given)
[6]
  T/C: 100 % of control
[7]
  T/C: 94 % of control
[8]
  T/C: 108 % of control

## CCCCOC(=O)CCCC(=O)OCCCC
[14]
  T/C: 108 % of control
[6]
  T/C: 95 % of control
[15]
  T/C: 104 % of control
[7]
  T/C: 93 % of control
[16]
  T/C: 103 % of control
[8]
  T/C: 95 % of control

## CSc1ncnc2c1c1c(N)ncnc1n2C1OC(CO)C(O)C1O (stereo not given)
[1]
  T/C: 107 % of control
[2]
  T/C: 101 % of control
[3]
  T/C: 95 % of control
[4]
  T/C: 103 % of control
[5]
  T/C: 109 % of control

## Cc1csc(NC(=O)c2ccc(C(=O)Nc3nc(C)cs3)cc2)n1
endpoint: mean survival time, dose: 100.0 mg/kg/injection, schedule: Q01DX001 (ip), vehicle: saline
  T/C: 95 % of control
endpoint: mean survival time, dose: 200.0 mg/kg/injection, schedule: Q01DX001 (ip), vehicle: saline
  T/C: 95 % of control
endpoint: mean survival time, dose: 400.0 mg/kg/injection, schedule: Q01DX001 (ip), vehicle: saline
  T/C: 92 % of control

## CCc1nc(-c2ccccc2)c(-c2ccccc2)[nH]1
[6]
  T/C: 90 % of control
[7]
  T/C: 92 % of control
[8]
  T/C: 90 % of control

## Cc1nn(-c2ccc(Cl)cc2)c(C)c1N=O
[9]
  T/C: 104 % of control

## C[P+]1(c2ccccc2)CCC(N)=C(C#N)C1 (stereo not given)
endpoint: mean survival time, dose: 25.0 mg/kg/injection, schedule: Q04DX002 (ip), vehicle: saline with Tween-80
  T/C: 97 % of control
endpoint: mean survival time, dose: 50.0 mg/kg/injection, schedule: Q04DX002 (ip), vehicle: saline with Tween-80
  T/C: 101 % of control
endpoint: mean survival time, dose: 100.0 mg/kg/injection, schedule: Q04DX002 (ip), vehicle: saline with Tween-80
  T/C: 101 % of control

## Nc1nc(N)c2cc(CNc3ccc(C(=O)NC(C(=O)O)C(=O)O)cc3)ccc2n1
endpoint: mean survival time, dose: 0.8 mg/kg/injection, schedule: Q01DX009 (ip), vehicle: saline
  T/C: 102 % of control
endpoint: mean survival time, dose: 1.6 mg/kg/injection, schedule: Q01DX009 (ip), vehicle: saline
  T/C: 86 % of control

## O=C(NNC(=O)C(F)(F)F)c1ccccc1
endpoint: mean survival time, dose: 12.5 mg/kg/injection, schedule: Q01DX009 (ip), vehicle: other
  T/C: 92 % of control
endpoint: mean survival time, dose: 25.0 mg/kg/injection, schedule: Q01DX009 (ip), vehicle: other
  T/C: 94 % of control
endpoint: mean survival time, dose: 50.0 mg/kg/injection, schedule: Q01DX009 (ip), vehicle: other
  T/C: 94 % of control
endpoint: mean survival time, dose: 100.0 mg/kg/injection, schedule: Q01DX009 (ip), vehicle: other
  T/C: 118 % of control
endpoint: mean survival time, dose: 200.0 mg/kg/injection, schedule: Q01DX009 (ip), vehicle: other
  T/C: 109 % of control

## [O]=[Sb]([c]1ccccc1)([c]1ccccc1)[c]1ccccc1
[6]
  T/C: 101 % of control

## C1CCC(C2CCCC[N-]2)[N-]C1.[Cl][Pt].[NH-]CC(=O)O (stereo not given)
endpoint: median survival time, dose: 10.0 mg/kg/injection, schedule: Q04DX003 (ip), vehicle: saline
  T/C: 101 % of control
endpoint: median survival time, dose: 20.0 mg/kg/injection, schedule: Q04DX003 (ip), vehicle: saline
  T/C: 105 % of control
endpoint: median survival time, dose: 40.0 mg/kg/injection, schedule: Q04DX003 (ip), vehicle: saline
  T/C: 98 % of control
endpoint: median survival time, dose: 80.0 mg/kg/injection, schedule: Q04DX003 (ip), vehicle: saline
  T/C: 95 % of control and 96 % of control
endpoint: median survival time, dose: 160.0 mg/kg/injection, schedule: Q04DX003 (ip), vehicle: saline
  T/C: 90 % of control
endpoint: median survival time, dose: 320.0 mg/kg/injection, schedule: Q04DX003 (ip), vehicle: saline
  T/C: 101 % of control

Source: PubChem BioAssay AID256 (DTP/NCI, 2004)
